Results taken from paper PMC12640959, “Elucidation of anti-SARS-CoV-2 and anti-inflammatory bioactives in Qingyan Dropping Pills via integrated in silico screening and bioactivity validation” (Frontiers in Medicine, 2025).
Like-named read-outs stand apart in the source and are kept apart here.

Columns and labels:
[1] = test system: TNF-α; assay: TNF-α level (ELISA) in LPS-induced RAW 264.7 cells; type: cell-based; conditions: RAW 264.7, LPS 1 μg/mL, 24 h, vs model group
Description: (§1) NO is an essential pro-inflammatory factor, which can be not only highly expressed in cells but also promoted the expression of other inflammatory cytokines. TNF-α, IL-6, and IL-1β were considered as the main inflammatory cytokines, which were screened as the key targets in network pharmacology. So, the cytokines, including NO, TNF-α, IL-6, and IL-1β, were selected as indicators to evaluate the anti-inflammatory effects. After cultured in a 96-well plate overnight for 1 × 10^5 cells/well, RAW 264.7 cells were simultaneously treated with the tested compounds (concentration from 5 μM to 100 μM) and lipopolysaccharide (LPS) (concentration with 1 μg/mL) for 24 h. Then, the supernatant was collected to measure the cytokines levels with the corresponding assay kits, respectively.

[2] = test system: RAW 264.7 cells; assay: MTT cell viability assay in RAW 264.7 cells; type: cell-based
Procedure: (§2) RAW 264.7 cells were cultured in DMEM with 10% fetal bovine serum, 100 μg/mL streptomycin, and 100 U/mL penicillin at 37 °C and supplemented with 5% CO2 and 95% air. After seeded and cultured in a 96-well plate (2 × 10^5 cells/well, 100 μL medium/well) for overnight, RAW 264.7 were treated with the tested compounds for 24 h, respectively. Then, 50 μL MTT (2.5 mg/mL) was added into each well and incubated at 37 °C for 4 h. Finally, the absorbance was recorded at 490 nm by a microplate reader to assess the cell viability.

[3] = test system: NO; assay: NO level in LPS-induced RAW 264.7 cells; type: cell-based; conditions: RAW 264.7, LPS 1 μg/mL, 24 h, vs model group, dose-dependent
Description: as §1

[4] = test system: IL-1β; assay: IL-1β level (ELISA) in LPS-induced RAW 264.7 cells; type: cell-based; conditions: RAW 264.7, LPS 1 μg/mL, 24 h, vs model group
Description: as §1

[5] = test system: IL-6; assay: IL-6 level (ELISA) in LPS-induced RAW 264.7 cells; type: cell-based; conditions: RAW 264.7, LPS 1 μg/mL, 24 h, vs model group
Description: as §1

[6] = rat, in vivo, po; cited from earlier work
[7] = test system: SARS-CoV-2 Omicron BA.5; assay: cytopathic effects (CPE) inhibition assay in Vero E6 cells; type: cell-based
[8] = molecular target: S^pro RBD; set-up: method as in PMID 34403732; conditions: cited from earlier work
[9] = test system: SARS-CoV-2; set-up: method as in PMID 37245876; conditions: Vero E6 monolayers, noncytotoxic concentrations; cited from earlier work
[10] = molecular target: T1, SARS-CoV-2 spike protein (S^pro) (Severe acute respiratory syndrome coronavirus 2, UniProt P0DTC2); assay: SPR assay (Biacore T200), immobilized S^pro; type: binding; conditions: CM5 chip, 25 °C, pH 7.4, 5% DMSO, read-out: equilibrium dissociation constant (KD), S^pro
T1 construct: purchased Sino Biological Inc. (Beijing, China)

[11] = molecular target: SARS-CoV-2 papain-like protease (PL^pro) (Severe acute respiratory syndrome coronavirus 2, UniProt P0DTD1); assay: SPR assay (Biacore T200), immobilized PL^pro; type: binding
[12] = molecular target: SARS-CoV-2 main protease (M^pro) (Severe acute respiratory syndrome coronavirus 2, UniProt P0DTD1); assay: SPR assay (Biacore T200), immobilized M^pro; type: binding; conditions: CM5 chip, 25 °C, pH 7.4, 5% DMSO
[13] = molecular target: SARS-CoV-2 PL^pro (Severe acute respiratory syndrome coronavirus 2, UniProt P0DTD1); assay: FRET enzymatic inhibition assay on PL^pro; type: biochemical; conditions: for inhibition on PL^pro at 40 μM: 40 μM compound
[14] = MTT cell viability assay in RAW 264.7 cells; type: cell-based; conditions: mouse
Procedure: as §2

[15] = molecular target: SARS-CoV-2 M^pro (Severe acute respiratory syndrome coronavirus 2, UniProt P0DTD1); assay: FRET enzymatic inhibition assay on M^pro; type: biochemical
[16] = in vitro; conditions: African green monkey
[17] = test system: RdRp; set-up: method as in PMID 33614402; conditions: cell-free and cell-based assays; cited from earlier work
[18] = MTT, 24 h, tested up to 100 μΜ, read-out: CC50 in RAW264.7 cells

With `C[C@H](CCC(=O)NCC(=O)O)[C@H]1CC[C@H]2[C@@H]3[C@H](O)C[C@@H]4C[C@H](O)CC[C@]4(C)[C@H]3C[C@H](O)[C@]12C` [GLYCH, glycocholic acid] the “level of TNF-α” value [1] was “decrease”, the “cell viability of RAW264.7 cells” value ([2]; MTT, above 40 μΜ, p < 0.05) was “significantly decreased” and the “production of NO” value [3] was “inhibited”. The “level of IL-1β” value [4] was “significantly reduce” and the “level of IL-6” value [5] was “significantly reduce”.
For `CC1(C)C2CCC1(C)C(O)C2` (stereo not shown) [borneol], the Tmax [6] is given as 20 to 25 min.
Compound `Cn1cnc(Cn2c(=O)[nH]/c(=N\c3cc4cn(C)nc4cc3Cl)n(Cc3cc(F)c(F)cc3F)c2=O)n1` [S-217622, reference compound] has an EC50 [7] of 0.088 µM.
For `O=C(O[C@@H]1Cc2c(O)cc(O)cc2O[C@@H]1c1cc(O)c(O)c(O)c1)c1cc(O)c(O)c(O)c1` [epigallocatechin gallate], the Kd [8] is given as 11.5 µM.
In the case of `O=C(O)C[C@@H]1C(=O)O[C@H]2[C@@H]3OC(=O)c4cc(O)c(O)c(O)c4-c4c(cc(O)c(O)c4O)C(=O)OC[C@H]2O[C@@H](OC(=O)c2cc(O)c(O)c(O)c2)[C@@H]3OC(=O)c2cc(O)c(O)c3c2[C@H]1[C@H](O)C(=O)O3` [chebulagic acid], the virus-induced plaque formation [9] is listed as “reduce”.
With `O=C(OC[C@H]1OC(O)[C@@](O)(COC(=O)c2cc(O)c(O)c(O)c2)[C@@H]1O)c1cc(O)c(O)c(O)c1` (stereo partly shown) [HAM, hamamelitannin] the Kd [10] was 0.0933 µM, the “cell viability of RAW264.7 cells” value [2] was “significantly decreased” and the “equilibrium dissociation constant (KD), PL^pro” value ([11]; SPR, CM5 chip, 25 °C, pH 7.4, 5% DMSO) was “negligible affinity”. For the same compound, the “equilibrium dissociation constant (KD), M^pro” value [12] was “negligible affinity”, the “production of NO” value [3] was “inhibited” and the “level of IL-1β” value [4] was “significantly reduce”. The “level of IL-6” value [5] was “significantly reduce”.
For `O=C1O[C@H]2[C@@H]3OC(=O)c4cc(O)c(O)c(O)c4-c4c(O)c(O)c5oc(=O)c6c(c(O)c(O)c7oc(=O)c4c5c76)-c4c(cc(O)c(O)c4O)C(=O)OC[C@H]3OC(O)[C@@H]2OC(=O)c2cc(O)c(O)c(O)c2-c2c1cc(O)c(O)c2O` (mixture of isomers) [punicalagin], the virus-induced plaque formation [9] is listed as “reduce”.
For `O=C(O[C@@H]1O[C@@H]2COC(=O)c3cc(O)c(O)c(O)c3-c3c(cc(O)c(O)c3O)C(=O)O[C@H]([C@H]1O)[C@@H]2O)c1cc(O)c(O)c(O)c1` [COR, corilagin], the IC50 [13] was over 100 µM, the “inhibition on PL^pro at 40 μM” value ([13]; FRET) was “poor inhibition” and the Kd [10] was 0.192 µM. For the same compound, the “level of TNF-α” value [1] was “decrease”, the CC50 at 24 h [14] was over 100 µM and the Kd [11] was 6.24 µM. The “production of NO” value [3] was “inhibited”, the IC50 [15] was 0.73 ± 0.05 µM and the “level of IL-1β” value [4] was “significantly reduce”. The EC50 ([7]; Severe acute respiratory syndrome coronavirus 2, Vero C1008, 48 h) was 12.8 µM, the CC50 at 48 h [16] was over 100 µM and the “level of IL-6” value [5] was “significantly reduce”. For the same compound, the RdRp polymerase activity [17] was “robustly inhibiting”.
With `C[C@@H]1O[C@@H](O[C@H]2[C@H](Oc3cc(O)c4c(=O)cc(-c5ccc(O)cc5)oc4c3)O[C@H](CO)[C@@H](O)[C@@H]2O)[C@H](O)[C@H](O)[C@H]1O` [RHO, rhoifolin] the IC50 ([13]; FRET, 1 μM protein, 10 μM substrate, read-out: IC50 on PL^pro) was over 100 µM, the “inhibition on PL^pro at 40 μM” value ([13]; FRET) was “poor inhibition” and the Kd [10] was 7.07 µM. For the same compound, the “level of TNF-α” value [1] was “decrease”, the CC50 at 24 h [14] was over 100 µM and the Kd ([11]; SPR, CM5 chip, 25 °C, pH 7.4, 5% DMSO, read-out: equilibrium dissociation constant (KD), PL^pro) was 7.72 µM. The “production of NO” value [3] was “inhibited”, the IC50 ([15]; FRET, 0.2 μM protein, 20 μM substrate, read-out: IC50 on M^pro) was 21.6 ± 8.78 µM and the “level of IL-1β” value [4] was “significantly reduce”. The “level of IL-6” value [5] was “significantly reduce”.
In the case of `O=C(/C=C/c1ccc(O[C@@H]2O[C@H](CO)[C@@H](O)[C@H](O)[C@H]2O)cc1)c1ccc(O)cc1O` [ISO, isoliquiritin], the “level of TNF-α” value [1] is reported as “decrease”, the CC50 at 24 h [14, 18] is reported as over 100 µM and the “production of NO” value [3] is reported as “inhibited”. The “level of IL-1β” value [4] was “significantly reduce” and the “level of IL-6” value [5] was “significantly reduce”.
For `CC(C)=CCc1c(O)ccc(C(=O)/C=C/c2ccc(O)cc2)c1O` [isobavachalcone], the Kd [8] is listed as 5.7 µM.
In the case of `O=C(O)c1cc(O)c(O)c(O)c1` [GAL, gallic acid], the “level of TNF-α” value [1] is reported as “decrease”, the CC50 at 24 h [14, 18] is reported as over 100 µM and the “production of NO” value [3] is reported as “inhibited”. The “level of IL-1β” value [4] was “significantly reduce” and the “level of IL-6” value [5] was “significantly reduce”.
For `O=C(/C=C/c1ccc(O)c(O)c1)O[C@@H]1C[C@](O)(C(=O)O)C[C@@H](OC(=O)/C=C/c2ccc(O)c(O)c2)[C@H]1O` [isochlorogenic acid A], the Kd [8] is listed as 18.3 µM.
